From ChEMBL document CHEMBL3885881, “DrugMatrix”

Species on record: Rattus norvegicus
Experiment: DrugMatrix - Regimen: Daily Repeat
Type: toxicity, organism-based, Sprague-Dawley
Design: regimen Daily Repeat, gender Male, age 6-8 weeks
Conditions: in vivo, po, route oral GAVAGE, vehicle 100 % WATER; for ABSOLUTE BASOPHIL / ABSOLUTE EOSINOPHIL / ABSOLUTE LYMPHOCYTE / ABSOLUTE MONOCYTE / ABSOLUTE SEGMENTED NEUTROPHIL / BASOPHIL / EOSINOPHIL / ERYTHROCYTE COUNT / HEMATOCRIT / HEMOGLOBIN / LEUKOCYTE COUNT / LYMPHOCYTE / MEAN CORPUSCULAR HEMOGLOBIN / MEAN CORPUSCULAR HEMOGLOBIN CONCENTRATION / MEAN CORPUSCULAR VOLUME / MONOCYTE / NEUTROPHIL / NUCLEATED RED BLOOD CELLS / PLATELET COUNT: tissue Blood; for ALANINE AMINOTRANSFERASE / ALBUMIN / ALKALINE PHOSPHATASE / ASPARTATE AMINOTRANSFERASE / BLOOD UREA NITROGEN / CARBON DIOXIDE / CHLORIDE / CHOLESTEROL / CREATINE PHOSPHOKINASE / CREATININE / GLUCOSE / LACTATE DEHYDROGENASE / LIPASE / PHOSPHORUS / POTASSIUM / SODIUM / TOTAL BILIRUBIN / TOTAL PROTEIN / URIC ACID: tissue Plasma
[1] = 0 mg/kg, 72 h, dose level Control, time 3 day
[2] = 0 mg/kg, 120 h, dose level Control, time 5 day
[3] = 100 mg/kg, 72 h, dose level High, time 3 day
[4] = 100 mg/kg, 120 h, dose level High, time 5 day

CN(C)CCOC(c1ccccc1)c1ccccc1 [DIPHENHYDRAMINE]
ABSOLUTE BASOPHIL [1]: 0 CELLS/uL | ABSOLUTE EOSINOPHIL [1]: 20.17 CELLS/uL | ABSOLUTE LYMPHOCYTE [1]: 12371.67 CELLS/uL | ABSOLUTE MONOCYTE [1]: 166 CELLS/uL | ABSOLUTE SEGMENTED NEUTROPHIL [1]: 1292.17 CELLS/uL | BASOPHIL [1]: 0% | EOSINOPHIL [1]: 0.17% | ERYTHROCYTE COUNT [1]: 5.46 x10E6/uL | HEMATOCRIT [1]: 34.38% | HEMOGLOBIN [1]: 13.32 G/DL | LEUKOCYTE COUNT [1]: 13.85 x10E3/uL | LYMPHOCYTE [1]: 88.5% | MEAN CORPUSCULAR HEMOGLOBIN [1]: 24.42 pg | MEAN CORPUSCULAR HEMOGLOBIN CONCENTRATION [1]: 38.7 G/DL | MEAN CORPUSCULAR VOLUME [1]: 63.07 fL | MONOCYTE [1]: 1.17% | NEUTROPHIL [1]: 10.17% | NUCLEATED RED BLOOD CELLS [1]: 0.17 /100WBC | PLATELET COUNT [1]: 1193.5 x10E3/uL | ALANINE AMINOTRANSFERASE [1]: 54.5 u/L | ALBUMIN [1]: 4.02 G/DL | ALKALINE PHOSPHATASE [1]: 346.5 u/L | ASPARTATE AMINOTRANSFERASE [1]: 103.17 u/L | BLOOD UREA NITROGEN [1]: 16.5 mg/dL | CARBON DIOXIDE [1]: 29.83 mmol/L | CHLORIDE [1]: 99.5 MEQ/L | CHOLESTEROL [1]: 72.5 mg/dL | CREATINE PHOSPHOKINASE [1]: 532.5 u/L | CREATININE [1]: 0.18 mg/dL | GLUCOSE [1]: 168.5 mg/dL | LACTATE DEHYDROGENASE [1]: 536.5 u/L | LIPASE [1]: 11.17 u/L | PHOSPHORUS [1]: 11.48 mg/dL | POTASSIUM [1]: 5.95 MEQ/L | SODIUM [1]: 140.5 MEQ/L | TOTAL BILIRUBIN [1]: 0.18 mg/dL | TOTAL PROTEIN [1]: 5.77 G/DL | URIC ACID [1]: 1.42 mg/dL | ABSOLUTE BASOPHIL [2]: 0 CELLS/uL | ABSOLUTE EOSINOPHIL [2]: 22.83 CELLS/uL | ABSOLUTE LYMPHOCYTE [2]: 12202.83 CELLS/uL | ABSOLUTE MONOCYTE [2]: 158 CELLS/uL | ABSOLUTE SEGMENTED NEUTROPHIL [2]: 1283 CELLS/uL | BASOPHIL [2]: 0% | EOSINOPHIL [2]: 0.17% | ERYTHROCYTE COUNT [2]: 5.88 x10E6/uL | HEMATOCRIT [2]: 36.62% | HEMOGLOBIN [2]: 14.07 G/DL | LEUKOCYTE COUNT [2]: 13.67 x10E3/uL | LYMPHOCYTE [2]: 89.5% | MEAN CORPUSCULAR HEMOGLOBIN [2]: 23.95 pg | MEAN CORPUSCULAR HEMOGLOBIN CONCENTRATION [2]: 38.43 G/DL | MEAN CORPUSCULAR VOLUME [2]: 62.28 fL | MONOCYTE [2]: 1.17% | NEUTROPHIL [2]: 9.17% | NUCLEATED RED BLOOD CELLS [2]: 0.17 /100WBC | PLATELET COUNT [2]: 1198 x10E3/uL | ALANINE AMINOTRANSFERASE [2]: 51 u/L | ALBUMIN [2]: 4.3 G/DL | ALKALINE PHOSPHATASE [2]: 343 u/L | ASPARTATE AMINOTRANSFERASE [2]: 89.83 u/L | BLOOD UREA NITROGEN [2]: 17.67 mg/dL | CARBON DIOXIDE [2]: 27.17 mmol/L | CHLORIDE [2]: 98.33 MEQ/L | CHOLESTEROL [2]: 82.5 mg/dL | CREATINE PHOSPHOKINASE [2]: 533.33 u/L | CREATININE [2]: 0.18 mg/dL | GLUCOSE [2]: 152.67 mg/dL | LACTATE DEHYDROGENASE [2]: 220.33 u/L | LIPASE [2]: 11.5 u/L | PHOSPHORUS [2]: 11.25 mg/dL | POTASSIUM [2]: 6.29 MEQ/L | SODIUM [2]: 140.53 MEQ/L | TOTAL BILIRUBIN [2]: 0.22 mg/dL | TOTAL PROTEIN [2]: 6.12 G/DL | URIC ACID [2]: 1.42 mg/dL | ABSOLUTE BASOPHIL [3]: 0 CELLS/uL | ABSOLUTE EOSINOPHIL [3]: 48.67 CELLS/uL | ABSOLUTE LYMPHOCYTE [3]: 13023.67 CELLS/uL | ABSOLUTE MONOCYTE [3]: 77 CELLS/uL | ABSOLUTE SEGMENTED NEUTROPHIL [3]: 750.67 CELLS/uL | BASOPHIL [3]: 0% | EOSINOPHIL [3]: 0.33% | ERYTHROCYTE COUNT [3]: 5.83 x10E6/uL | HEMATOCRIT [3]: 36.17% | HEMOGLOBIN [3]: 14.33 G/DL | LEUKOCYTE COUNT [3]: 13.9 x10E3/uL | LYMPHOCYTE [3]: 93.67% | MEAN CORPUSCULAR HEMOGLOBIN [3]: 24.6 pg | MEAN CORPUSCULAR HEMOGLOBIN CONCENTRATION [3]: 39.67 G/DL | MEAN CORPUSCULAR VOLUME [3]: 62.07 fL | MONOCYTE [3]: 0.67% | NEUTROPHIL [3]: 5.33% | NUCLEATED RED BLOOD CELLS [3]: 0 /100WBC | PLATELET COUNT [3]: 1203 x10E3/uL | ALANINE AMINOTRANSFERASE [3]: 46.67 u/L | ALBUMIN [3]: 4 G/DL | ALKALINE PHOSPHATASE [3]: 345.33 u/L | ASPARTATE AMINOTRANSFERASE [3]: 88.67 u/L | BLOOD UREA NITROGEN [3]: 16.67 mg/dL | CARBON DIOXIDE [3]: 30.33 mmol/L | CHLORIDE [3]: 100.33 MEQ/L | CHOLESTEROL [3]: 78 mg/dL | CREATINE PHOSPHOKINASE [3]: 422.33 u/L | CREATININE [3]: 0.14 mg/dL | GLUCOSE [3]: 146 mg/dL | LACTATE DEHYDROGENASE [3]: 334.67 u/L | LIPASE [3]: 11.67 u/L | PHOSPHORUS [3]: 12.1 mg/dL | POTASSIUM [3]: 6.05 MEQ/L | SODIUM [3]: 141 MEQ/L | TOTAL BILIRUBIN [3]: 0.17 mg/dL | TOTAL PROTEIN [3]: 5.67 G/DL | URIC ACID [3]: 1.3 mg/dL | ABSOLUTE BASOPHIL [4]: 0 CELLS/uL | ABSOLUTE EOSINOPHIL [4]: 0 CELLS/uL | ABSOLUTE LYMPHOCYTE [4]: 12726.67 CELLS/uL | ABSOLUTE MONOCYTE [4]: 228 CELLS/uL | ABSOLUTE SEGMENTED NEUTROPHIL [4]: 1012 CELLS/uL | BASOPHIL [4]: 0% | EOSINOPHIL [4]: 0% | ERYTHROCYTE COUNT [4]: 5.75 x10E6/uL | HEMATOCRIT [4]: 34.8% | HEMOGLOBIN [4]: 13.73 G/DL | LEUKOCYTE COUNT [4]: 13.97 x10E3/uL | LYMPHOCYTE [4]: 91.33% | MEAN CORPUSCULAR HEMOGLOBIN [4]: 23.9 pg | MEAN CORPUSCULAR HEMOGLOBIN CONCENTRATION [4]: 39.47 G/DL | MEAN CORPUSCULAR VOLUME [4]: 60.53 fL | MONOCYTE [4]: 1.67% | NEUTROPHIL [4]: 7% | NUCLEATED RED BLOOD CELLS [4]: 0 /100WBC | PLATELET COUNT [4]: 1281 x10E3/uL | ALANINE AMINOTRANSFERASE [4]: 54.33 u/L | ALBUMIN [4]: 3.93 G/DL | ALKALINE PHOSPHATASE [4]: 386 u/L | ASPARTATE AMINOTRANSFERASE [4]: 79.33 u/L | BLOOD UREA NITROGEN [4]: 16.67 mg/dL | CARBON DIOXIDE [4]: 25.67 mmol/L | CHLORIDE [4]: 99 MEQ/L | CHOLESTEROL [4]: 60 mg/dL | CREATINE PHOSPHOKINASE [4]: 323.33 u/L | CREATININE [4]: 0.11 mg/dL | GLUCOSE [4]: 154.67 mg/dL | LACTATE DEHYDROGENASE [4]: 155.33 u/L | LIPASE [4]: 11.33 u/L | PHOSPHORUS [4]: 11.47 mg/dL | POTASSIUM [4]: 6.2 MEQ/L | SODIUM [4]: 141.53 MEQ/L | TOTAL BILIRUBIN [4]: 0.2 mg/dL | TOTAL PROTEIN [4]: 5.5 G/DL | URIC ACID [4]: 1.97 mg/dL
